This passage reports IC50 results from ChEMBL document CHEMBL1130680, “Restricting the flexibility of crosslinked, interfacial peptide inhibitors of HIV-1 protease” (Bioorg Med Chem Lett, 1998).

The target in the test is Human immunodeficiency virus type 1 protease (Human immunodeficiency virus 1, UniProt Q72874). The experiment in a line: Inhibition of HIV-1 protease by fluorogenic substrate assay.
As for `CC[C@H](C)[C@H](NC(=O)[C@H](CCC(N)=O)NC(=O)[C@@H]1CCCN1C(=O)CCCCCCC/C=C/CCCCCCCC(=O)N[C@H](CO)C(=O)N[C@@H](C(=O)N[C@H](CC(C)C)C(=O)N[C@H](CC(N)=O)C(=O)N[C@H](Cc1ccccc1)C(=O)O)[C@H](C)O)C(=O)N[C@H](C(=O)N[C@@H](CC(C)C)C(=O)N[C@@H](Cc1c[nH]c2ccccc12)C(=O)O)[C@@H](C)O`, the IC50 (as a rule, the point on the concentration scale where inhibition reaches its midpoint) came to 6.3 µM.

Turning to `CC[C@H](C)[C@H](NC(=O)[C@H](CCC(N)=O)NC(=O)[C@@H]1CCCN1C(=O)CCCCC/C=C\CCCCCC(=O)N[C@H](CO)C(=O)N[C@@H](C(=O)N[C@H](CC(C)C)C(=O)N[C@H](CC(N)=O)C(=O)N[C@H](Cc1ccccc1)C(=O)O)[C@H](C)O)C(=O)N[C@H](C(=O)N[C@@H](CC(C)C)C(=O)N[C@@H](Cc1c[nH]c2ccccc12)C(=O)O)[C@@H](C)O`, the IC50 is 32.7 µM.

`CC[C@H](C)[C@H](NC(=O)[C@H](CCC(N)=O)NC(=O)[C@@H]1CCCN1C(=O)CCCCCCCC#CCCCCCCCC(=O)N[C@H](CO)C(=O)N[C@@H](C(=O)N[C@H](CC(C)C)C(=O)N[C@H](CC(N)=O)C(=O)N[C@H](Cc1ccccc1)C(=O)O)[C@H](C)O)C(=O)N[C@H](C(=O)N[C@@H](CC(C)C)C(=O)N[C@@H](Cc1c[nH]c2ccccc12)C(=O)O)[C@@H](C)O` showed an IC50 of 7.2 µM. This IC50 is about 4.5-fold lower than that of the molecule before.

`CC[C@H](C)[C@H](NC(=O)[C@H](CCC(N)=O)NC(=O)[C@@H]1CCCN1C(=O)CCCCCCC#CCCCCCCC(=O)N[C@H](CO)C(=O)N[C@@H](C(=O)N[C@H](CC(C)C)C(=O)N[C@H](CC(N)=O)C(=O)N[C@H](Cc1ccccc1)C(=O)O)[C@H](C)O)C(=O)N[C@H](C(=O)N[C@@H](CC(C)C)C(=O)N[C@@H](Cc1c[nH]c2ccccc12)C(=O)O)[C@@H](C)O` displayed an IC50 of 4.5 µM.

As for `CC[C@H](C)[C@H](NC(=O)[C@H](CCC(N)=O)NC(=O)[C@@H]1CCCN1C(=O)CCCCC/C=C/CCCCCC(=O)N[C@H](CO)C(=O)N[C@@H](C(=O)N[C@H](CC(C)C)C(=O)N[C@H](CC(N)=O)C(=O)N[C@H](Cc1ccccc1)C(=O)O)[C@H](C)O)C(=O)N[C@H](C(=O)N[C@@H](CC(C)C)C(=O)N[C@@H](Cc1c[nH]c2ccccc12)C(=O)O)[C@@H](C)O`, the midpoint of inhibition, the IC50, lay at 51.5 µM.

Take `CC[C@H](C)[C@H](NC(=O)[C@H](CCC(N)=O)NC(=O)[C@@H]1CCCN1C(=O)CCCCCC#CCCCCCC(=O)N[C@H](CO)C(=O)N[C@@H](C(=O)N[C@H](CC(C)C)C(=O)N[C@H](CC(N)=O)C(=O)N[C@H](Cc1ccccc1)C(=O)O)[C@H](C)O)C(=O)N[C@H](C(=O)N[C@@H](CC(C)C)C(=O)N[C@@H](Cc1c[nH]c2ccccc12)C(=O)O)[C@@H](C)O`: the IC50 was 21 µM. Compared with the last molecule, the IC50 is about 2.5-fold lower.

`CC[C@H](C)[C@H](NC(=O)[C@H](CCC(N)=O)NC(=O)[C@@H]1CCCN1C(=O)CCCCCCC/C=C\CCCCCCCC(=O)N[C@H](CO)C(=O)N[C@@H](C(=O)N[C@H](CC(C)C)C(=O)N[C@H](CC(N)=O)C(=O)N[C@H](Cc1ccccc1)C(=O)O)[C@H](C)O)C(=O)N[C@H](C(=O)N[C@@H](CC(C)C)C(=O)N[C@@H](Cc1c[nH]c2ccccc12)C(=O)O)[C@@H](C)O` came in with an IC50 of 4.4 µM. This IC50 is about 4.8-fold lower than that of the molecule before.

For `CC[C@H](C)[C@H](NC(=O)[C@H](CCC(N)=O)NC(=O)[C@@H]1CCCN1C(=O)CCCCCC/C=C/CCCCCCC(=O)N[C@H](CO)C(=O)N[C@@H](C(=O)N[C@H](CC(C)C)C(=O)N[C@H](CC(N)=O)C(=O)N[C@H](Cc1ccccc1)C(=O)O)[C@H](C)O)C(=O)N[C@H](C(=O)N[C@@H](CC(C)C)C(=O)N[C@@H](Cc1c[nH]c2ccccc12)C(=O)O)[C@@H](C)O`, the IC50 stood at 17.5 µM.

In the case of `CC[C@H](C)[C@H](NC(=O)[C@H](CCC(N)=O)NC(=O)[C@@H]1CCCN1C(=O)CCCCCCCCCCCCCCCCC(=O)N[C@H](CO)C(=O)N[C@@H](C(=O)N[C@H](CC(C)C)C(=O)N[C@H](CC(N)=O)C(=O)N[C@H](Cc1ccccc1)C(=O)O)[C@H](C)O)C(=O)N[C@H](C(=O)N[C@@H](CC(C)C)C(=O)N[C@@H](Cc1c[nH]c2ccccc12)C(=O)O)[C@@H](C)O`, inhibition was half-maximal at 4 µM (IC50). Against the preceding molecule, the IC50 is about 4.4-fold lower.

`CC[C@H](C)[C@H](NC(=O)[C@H](CCC(N)=O)NC(=O)[C@@H]1CCCN1C(=O)CCCCCCCCCCCCC(=O)N[C@H](CO)C(=O)N[C@@H](C(=O)N[C@H](CC(C)C)C(=O)N[C@H](CC(N)=O)C(=O)N[C@H](Cc1ccccc1)C(=O)O)[C@H](C)O)C(=O)N[C@H](C(=O)N[C@@H](CC(C)C)C(=O)N[C@@H](Cc1c[nH]c2ccccc12)C(=O)O)[C@@H](C)O`: inhibition was half-maximal at 13 µM (IC50).

For the molecule `CC[C@H](C)[C@H](NC(=O)[C@H](CCC(N)=O)NC(=O)[C@@H]1CCCN1C(=O)CCCCCCCCCCCCCCC(=O)N[C@H](CO)C(=O)N[C@@H](C(=O)N[C@H](CC(C)C)C(=O)N[C@H](CC(N)=O)C(=O)N[C@H](Cc1ccccc1)C(=O)O)[C@H](C)O)C(=O)N[C@H](C(=O)N[C@@H](CC(C)C)C(=O)N[C@@H](Cc1c[nH]c2ccccc12)C(=O)O)[C@@H](C)O`, the IC50 stood at 2 µM.

In turn, `CC[C@H](C)[C@H](NC(=O)[C@H](CCC(N)=O)NC(=O)[C@@H]1CCCN1C(=O)CCCCCC/C=C\CCCCCCC(=O)N[C@H](CO)C(=O)N[C@@H](C(=O)N[C@H](CC(C)C)C(=O)N[C@H](CC(N)=O)C(=O)N[C@H](Cc1ccccc1)C(=O)O)[C@H](C)O)C(=O)N[C@H](C(=O)N[C@@H](CC(C)C)C(=O)N[C@@H](Cc1c[nH]c2ccccc12)C(=O)O)[C@@H](C)O` had an IC50 of 12.9 µM.
